Results from publication PMC10007777, “Glycyrrhizic acid inhibits myeloid differentiation of hematopoietic stem cells by binding S100 calcium binding protein A8 to improve cognition in aged mice” (Immunity & Ageing : I & A, 2023).

Biological target: T1, S100A8 protein (S100 calcium binding protein A8; MRP-8) (Mus musculus, UniProt P27005)
T1 construct: amine-coupled to CM5 (COOH) chip
T1 sequence (P27005 2-89): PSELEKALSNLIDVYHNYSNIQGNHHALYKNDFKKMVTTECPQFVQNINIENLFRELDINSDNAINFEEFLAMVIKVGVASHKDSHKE
Test: SPR (BIAcore […]), S100A8 immobilized
Conditions: 20 mM Tris-HCl, 150 mM NaCl, 1 mM TCEP, pH 7.2, 25 C; GA 0-500 uM

SMILES: CC1(C)[C@@H](O[C@H]2O[C@H](C(=O)O)[C@@H](O)[C@H](O)[C@H]2O[C@@H]2O[C@H](C(=O)O)[C@@H](O)[C@H](O)[C@H]2O)CC[C@]2(C)[C@H]3C(=O)C=C4[C@@H]5C[C@@](C)(C(=O)O)CC[C@]5(C)CC[C@@]4(C)[C@]3(C)CC[C@@H]12 [GA, Glycyrrhizic acid]
- binding (SPR): The experimental results show binding between GA and S100A8 protein (Fig. 5E).
